Results reported in patent publication US4103008A, “7[2(2,3 Dioxopiperazin-1-yl-carbonylamino)substituted 2 phenylacetamido]-3-2'-thiadiazolyl cephalosporanic acid derivatives” (priority 1976, dated 1978).
Converted amounts (≈) assume the structure as drawn. Where two headings read alike, the source gives them in different places.

How the values were obtained:
[1] = system: Bacillus substilis ATCC 6633; test: In vitro antibacterial activity (MIC); assay type: cell-based; conditions: ATCC6633
[2] = system: Pseudomonas aeruginosa C73-2; test: In vitro antibacterial activity (MIC); assay type: cell-based; conditions: C732
Escherichia coli C 73-4 = test: In vitro antibacterial activity (MIC); assay type: cell-based; conditions: C734
[3] = system: Staphylococcus aureus FDA 209NIH, P-J C-1; test: In vitro antibacterial activity (MIC); assay type: cell-based
[4] = system: Pseudomonas strain C73-63; test: In vitro antibacterial activity (MIC); assay type: cell-based; conditions: C7363
Serratia strain No. 2 = test: In vitro antibacterial activity (MIC); assay type: cell-based
Salmonella strain C73-1 = test: In vitro antibacterial activity (MIC); assay type: cell-based; conditions: C731; Salmonella strain C73-1; in vitro; sodium salts; read-out: MIC
Text: (§1) Given below are the test results of in vitro antibacterial activity studies, serum concentrations and accumulative urinary excretions in rabbits and the protecting effects in mice, of some representative compounds of the invention.
(§2) The compounds used in the tests are shown in the following Table 1, but all of these compounds are in the form of the sodium salt.

[5] = system: Salmonella strain C 73-30; test: In vitro antibacterial activity (MIC); assay type: cell-based; conditions: C7330; Salmonella strain C 73-30; in vitro; sodium salts; read-out: MIC
Text: as §1, §2

[6] = system: Pseudomonas strain C73-83; test: In vitro antibacterial activity (MIC); assay type: cell-based; conditions: C7383; Pseudomonas strain C73-83; in vitro; sodium salts; read-out: MIC
Text: as §1, §2

[7] = system: Vibrio parahaemolyticus K - 3; test: In vitro antibacterial activity (MIC); assay type: cell-based; conditions: K3
[8] = system: Streptococcus faecalis ATCC 8043; test: In vitro antibacterial activity (MIC); assay type: cell-based; conditions: Enterococcus faecalis, ATCC8043
[9] = system: Salmonella enteritidis No. 11; test: In vitro antibacterial activity (MIC); assay type: cell-based; conditions: Salmonella enterica
[10] = system: Shigella dysenteriae shigae; test: microbe, parasite or virus in culture; assay type: cell-based
[11] = system: Pseudomonas aerugenosa E 2 strain; test: ED50 in Pseudomonas infection in mice; assay type: in vivo; conditions: ICR-JCL mouse, male, 20g; P. aerugenosa E 2 3.6 × 10^4 intraperitoneal; compound intramuscular after 2 hrs.; ED50 after 7 days; sodium salts
Text: as §1, §2
Pseudomonas aerugenosa E 2 strain (3.6 × 10^4) was intraperitonealy injected to each group of 10 of ICR-JCL mouse (male, 20g). After 2 hrs., each of the test compounds was intramuscularly administered to the infected mice and the ED50 values were measured after 7 days.

Klebsilla pneumoniae = test: In vitro antibacterial activity (MIC); assay type: cell-based
Proteus morganii kono = test: In vitro antibacterial activity (MIC); assay type: cell-based; conditions: Morganella morganii
[12] = Serum concentration and accumulative urinary excretion in rabbit; conditions: in vivo, im
Description: as §1, §2
Each of the test compounds (20 mg/kg) was intramuscularly administered to one group of 3 rabbits, and the amounts of antibiotics were measured by a conventional method, using Sarcina lutea.

Proteus morganii C73-23 = test: In vitro antibacterial activity (MIC); assay type: cell-based; conditions: Morganella morganii, C7323
[13] = system: Enterobacter strain C73-17; test: In vitro antibacterial activity (MIC); assay type: cell-based; conditions: C7317
[14] = system: Vibrio parahaemolyticus K - 5; test: In vitro antibacterial activity (MIC); assay type: cell-based; conditions: K5
Serratia strain No. 1 = test: In vitro antibacterial activity (MIC); assay type: cell-based
Escherichia coli C 73-1 = test: In vitro antibacterial activity (MIC); assay type: cell-based; conditions: C731
[15] = Bacillus substilis ATCC 6633, in vitro, sodium salts, read-out: MIC
[16] = Pseudomonas aeruginosa C73-2, in vitro, sodium salts, read-out: MIC
[17] = Staphylococcus aureus FDA 209NIH, P-J C-1, in vitro, sodium salts, read-out: MIC
[18] = Pseudomonas strain C73-63, in vitro, sodium salts, read-out: MIC
[19] = Vibrio parahaemolyticus K - 3, in vitro, sodium salts, read-out: MIC
[20] = Streptococcus faecalis ATCC 8043, in vitro, sodium salts, read-out: MIC
[21] = Salmonella enteritidis No. 11, in vitro, sodium salts, read-out: MIC
[22] = Proteus morganii kono, in vitro, sodium salts, read-out: MIC
[23] = Proteus morganii C73-23, in vitro, sodium salts, read-out: MIC
[24] = Enterobacter strain C73-17, in vitro, sodium salts, read-out: MIC
[25] = Vibrio parahaemolyticus K - 5, in vitro, sodium salts, read-out: MIC
[26] = Escherichia coli C 73-1, in vitro, sodium salts, read-out: MIC

SMILES	MIC [1, 15]	MIC [2, 16]	MIC [3, 17]	MIC [4, 18]	MIC (Salmonella strain C73-1)	MIC [5]	MIC [6]	MIC [7, 19]	MIC [8, 20]	MIC [9, 21]	MIC [10]	ED50 in Pseudomonas infection in mice [11]	MIC (Proteus morganii kono; [22])	MIC (Proteus morganii C73-23; [23])	MIC [13, 24]	MIC [14, 25]	MIC (Escherichia coli C 73-4; Escherichia coli)	MIC (Serratia strain No. 2; Serratia, NO.2)	MIC (Klebsilla pneumoniae)	MIC (Serratia strain No. 1; Serratia, NO.1)	also measured
CCN1CCN(C(=O)N[C@@H](C(=O)NC2C(=O)N3C(C(=O)O)=C(CSc4nncs4)CS[C@H]23)c2ccc(O)c(Cl)c2)C(=O)C1=O (single isomer, unassigned) [II, 7-[D(-)-α-(4-ethyl-2,3-dioxopiperazin-1-yl-carbonylamino)-m-chloro-p-hydroxyphenylacetamido]-3-(1,3,4-thiadiazol-2-yl-thiomethyl)-3-cephem-4-carboxylic acid]	0.39 mg/L	6.25 mg/L	0.2 mg/L	1.56 mg/L	0.78 mg/L	1.56 mg/L	12.5 mg/L	12.5 mg/L	1.56 mg/L	< 0.05 mg/L	< 0.05 mg/L	2.2 mg/mouse	3.13 mg/L	6.25 mg/L	12.5 mg/L	12.5 mg/L					MIC (Escherichia coli C 73-4; Escherichia coli C 73-4, in vitro, sodium salts, read-out: MIC): 1.56 mg/L; MIC (Serratia strain No. 2; Serratia strain No. 2, in vitro, sodium salts, read-out: MIC): 6.25 mg/L; MIC (Klebsilla pneumoniae; Klebsilla pneumoniae, in vitro, sodium salts, read-out: MIC): 0.78 mg/L; dose excreted at 6 h ([12]; 20 mg/kg): 24%; concentration at 0.5 h ([12]; 20 mg/kg intramuscular, after 30 mins., sodium salts, Sarcina lutea assay): 28.8 µg/mL; MIC (Serratia strain No. 1; Serratia strain No. 1, in vitro, sodium salts, read-out: MIC): 3.13 mg/L; MIC (Escherichia coli C 73-1; [26]): 1.56 mg/L
CCN1CCN(C(=O)N[C@@H](C(=O)N[C@@H]2C(=O)N3[C@@H]2SC(C)(C)[C@@H]3C(=O)O)c2ccccc2)C(=O)C1=O [C, sodium 6-[D(-)-α-(4-ethyl-2,3-dioxopiperazin-1-yl-carbonylamino)phenylacetamido]penicillanate, reference compound]	0.39 mg/L		0.78 mg/L		6.25 mg/L	6.25 mg/L	50 mg/L	25 mg/L	12.5 mg/L	< 0.05 mg/L	0.2 mg/L		0.78 mg/L			12.5 mg/L	6.25 mg/L	3.13 mg/L	3.13 mg/L	3.13 mg/L	MIC ([2]; Pseudomonas aeruginosa): 6.25 mg/L; MIC ([4]; Pseudomonas): 3.13 mg/L; MIC (Proteus morganii C73-23): 3.13 mg/L; MIC ([13]; Enterobacter): 6.25 mg/L; MIC (Escherichia coli C 73-1; Escherichia coli): 3.13 mg/L
CCN1CCN(C(=O)N[C@@H](C(=O)NC2C(=O)N3C(C(=O)O)=C(CSc4nnc(C)s4)CS[C@H]23)c2ccc(O)cc2)C(=O)C1=O (single isomer, unassigned) [Example 8, 7-[D(-)-α-(4-ethyl-2,3-dioxopiperazin-1-yl-carbonylamino)-p-hydroxyphenylacetamido]-3-(5-methyl-1,3,4-thiadiazol-2-yl-thiomethyl)-3-cephem-4-carboxylic acid]																					MIC ([2]; Pseudomonas aeruginosa C-73-2, read-out: Mic value against Pseudomonas aeruginosa C-73-2): 25 mg/L (≈ 37.8 µM)
CC1(C)S[C@@H]2[C@H](NC(=O)C(C(=O)O)c3ccccc3)C(=O)N2[C@H]1C(=O)O (stereo partly shown) [CB-PC, sodium carbenicillin, reference compound]	< 0.05 mg/L	25 mg/L	0.2 mg/L		6.25 mg/L	6.25 mg/L	> 100 mg/L	> 100 mg/L		0.39 mg/L	0.78 mg/L	8.1 mg/mouse	0.39 mg/L	1.56 mg/L	25 mg/L	> 100 mg/L	6.25 mg/L	3.13 mg/L	6.25 mg/L	3.13 mg/L	MIC ([4]; Pseudomonas): 12.5 mg/L; MIC [8]: 6.25 mg/L; MIC (Escherichia coli C 73-1; [26]): > 100 mg/L
CC1=C(C(=O)O)N2C(=O)[C@@H](NC(=O)[C@H](N)c3ccccc3)[C@H]2SC1 [CEX, sodium cephalexin, reference compound]				> 100 mg/L	3.13 mg/L	3.13 mg/L	> 100 mg/L				1.56 mg/L						6.25 mg/L	> 100 mg/L	3.13 mg/L	> 100 mg/L	MIC ([1]; Bacillus): 0.39 mg/L; MIC ([2]; Pseudomonas aeruginosa): > 100 mg/L; MIC ([3]; Staphylococcus aureus): 0.78 mg/L; MIC ([7]; Vibrio parahaemolyticus): 6.25 mg/L; MIC [8]: 50 mg/L; MIC ([9]; ENTERITIDIS): 3.13 mg/L; MIC (Proteus morganii kono): > 100 mg/L; MIC (Proteus morganii C73-23): > 100 mg/L; MIC ([13]; Enterobacter): 100 mg/L; MIC ([14]; Vibrio parahaemolyticus): 50 mg/L; MIC (Escherichia coli C 73-1; Escherichia coli): 25 mg/L
